Consider 33 compounds from patent US9006454B2, “Dihydroorotate dehydrogenase inhibitors” (Merck Serono S.A., priority 2009, dated 2015).

The subject of one assay is Jurkat cells. Briefly: Measurement of cell proliferation (Jurkat cell), XTT assay. The class given is cell-based. The following applies: Homo sapiens, Jurkat; for inhibition at 1 µM: compound at 1 uM, read-out: % inh Jurkat_cells @ 1 uM (%). The method in brief: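 Jurkat T cells, 100,000 per well in RPMI with 10% FBS, exposed 72 h at 37 °C to serial compound dilutions (typically from 10 μM, half-log steps, triplicate) at 0.25–0.5% DMSO. Viability by XTT/PMS, A465 after 2 h, media background subtracted, untreated cells as 100%; EC50 from curve fit.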
Background: Tetrazolium dyes change colour on reduction, which living cells bring about.

A further assay has as its target DHODH (Homo sapiens (Human), UniProt Q02127). The assay is described as follows: DHODH activity assay (coupled enzyme assay, DCIP reduction, absorbance at 610 nm). The class given is biochemical. The following applies: for inhibition at 10 µM: compound at 10 uM, read-out: inh @ 10 uM hDHODH (%).

Sequence of DHODH (Q02127 whole entry): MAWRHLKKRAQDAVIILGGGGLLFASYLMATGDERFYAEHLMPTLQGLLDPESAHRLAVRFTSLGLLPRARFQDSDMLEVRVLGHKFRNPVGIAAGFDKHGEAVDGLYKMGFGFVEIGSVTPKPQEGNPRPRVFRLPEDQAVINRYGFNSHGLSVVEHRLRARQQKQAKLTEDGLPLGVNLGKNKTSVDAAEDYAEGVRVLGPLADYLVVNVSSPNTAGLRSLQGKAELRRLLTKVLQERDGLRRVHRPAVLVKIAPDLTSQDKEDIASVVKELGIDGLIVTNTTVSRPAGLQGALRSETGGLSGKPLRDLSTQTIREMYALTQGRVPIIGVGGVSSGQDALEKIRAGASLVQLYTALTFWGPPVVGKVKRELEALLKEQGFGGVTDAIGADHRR

What is called IC50 is the concentration that gives 50% inhibition. A low value points to inhibition by little substance. `Cc1cc(C(=O)O)c2[nH]c(-c3ccc(-c4ccccc4OCc4ccccc4)cc3)nc2c1` [I106]: the inhibition at 1 µM in the assay with Jurkat cells was 48%. In addition, on DHODH, the IC50 amounted to 1500 nM and the inhibition at 10 µM is 91%.

As to `O=C(O)c1cccc2nc(-c3c(F)c(F)c(-c4cccc(OCc5ccccc5)c4)c(F)c3F)[nH]c12` [I107], the inhibition at 1 µM with Jurkat cells was found to be 99%. Further, on DHODH, inhibition was half-maximal at 26 nM (IC50) and the inhibition at 10 µM came out at 108%.

`Nc1nnc(-c2cccc3[nH]c(-c4ccc(-c5ccccc5)cc4)nc23)s1` [I108]: the inhibition at 1 µM with Jurkat cells is 11%. Also, on DHODH, 15900 nM corresponded to half-maximal inhibition (IC50) and the inhibition at 10 µM was found to be 53%.

As to `Cc1cc(C#N)c2nc(-c3c(F)c(F)c(-c4ccccc4)c(F)c3F)[nH]c2c1` [I109], in the assay on Jurkat cells, the inhibition at 1 µM stood at 49%. For the same compound, on DHODH, the IC50 turned out to be 1650 nM and the inhibition at 10 µM is 87%.

As to `Cc1ccc(C)n1-c1c(F)c(F)c(-c2nc3cccc(C(=O)O)c3[nH]2)c(F)c1F` [I110], in the assay with Jurkat cells, the inhibition at 1 µM came out at 97%. On DHODH, the IC50 is 110 nM and the inhibition at 10 µM was determined as 106%.

Consider `Cc1cc(C(=O)O)c2nc(-c3ccc(-c4cnn(Cc5ccccc5)c4)cc3)[nH]c2c1` [I111], for which the inhibition at 1 µM in the assay on Jurkat cells is 62%. Further, on DHODH, half-maximal inhibition (IC50) was put at 155 nM and the inhibition at 10 µM amounted to 91%.

On to `Cc1cc(C(=O)O)c2nc(-c3ccc(-c4ccc(Oc5ccccc5C#N)cc4)cc3)[nH]c2c1` [I112], for which the inhibition at 1 µM in the assay with Jurkat cells was found to be 49%. At DHODH, the IC50 is 2030 nM and the inhibition at 10 µM was determined as 85%.

Regarding `Cc1cc(C(=O)O)c2nc(-c3ccc(-c4ccc(OCc5ccncc5)cc4)cc3)[nH]c2c1` [I114], in the assay with Jurkat cells, the inhibition at 1 µM came to 49%. Besides, at DHODH, the IC50 was 1730 nM and the inhibition at 10 µM came out at 65%.

Turning to `Cc1cc(C(=O)O)c2nc(-c3ccc(-c4cccc(OCc5ccccc5)c4)cc3)[nH]c2c1` [I115], the inhibition at 1 µM in the assay on Jurkat cells came out at 52%. At DHODH, the IC50 is 1200 nM and the inhibition at 10 µM turned out to be 88%.

On to `Cc1cc(C(=O)O)c2nc(-c3ccc(-c4cccc(O)c4)cc3)[nH]c2c1` [I116], for which, in the assay on Jurkat cells, the inhibition at 1 µM was 59%. Moreover, at DHODH, half-maximal inhibition (IC50) was put at 862 nM and the inhibition at 10 µM was 78%.

Take `Cc1cc(C(=O)O)c2nc(-c3ccc(-c4ccc(O)cc4)cc3)[nH]c2c1` [I117]: the inhibition at 1 µM in the assay with Jurkat cells was 76%. Moreover, at DHODH, the IC50 came to 350 nM and the inhibition at 10 µM came to 102%.

As for `O=C(O)c1cccc2[nH]c(-c3ccc(-c4cccc(OCc5ccccc5)c4)cc3)nc12` [I118], in the assay on Jurkat cells, the inhibition at 1 µM came to 41.4%. For the same compound, on DHODH, the IC50 was 1300 nM and the inhibition at 10 µM was 84%.

As to `Cc1cc(C(=O)O)c2nc(-c3ccc(-c4ccc(OCc5ccccn5)cc4)cc3)[nH]c2c1` [I119], the inhibition at 1 µM with Jurkat cells was 40.3%. Further, on DHODH, the IC50 was 2230 nM and the inhibition at 10 µM came to 88.1%.

With `Cc1cc(C(=O)O)c2nc(-c3ccc(-c4ccc(OCc5cccnc5)cc4)cc3)[nH]c2c1` [I120], in the assay with Jurkat cells, the inhibition at 1 µM amounted to 66.1%. For the same compound, on DHODH, the IC50 came out at 755 nM and the inhibition at 10 µM came to 89.9%.

For the compound `Cc1cc(C(=O)O)c2[nH]c(-c3ccc(-n4c(C)ccc4C)cc3)nc2c1` [I121], the inhibition at 1 µM in the assay on Jurkat cells came to 70.7%. For the same compound, at DHODH, half-maximal inhibition (IC50) was put at 401 nM and the inhibition at 10 µM turned out to be 108%.

`O=C(O)c1cccn2nc(-c3ccc(-c4ccccc4)cc3)nc12` [I122]: in the assay on Jurkat cells, the inhibition at 1 µM is 55.4%. On DHODH, the IC50 is 1200 nM and the inhibition at 10 µM was found to be 88%.

For orientation: EC50 means the concentration needed to bring the measured effect to its halfway point. Low values mean an effect from little substance, high ones a need for much substance. In the assay with Jurkat cells (72 h, XTT cell viability), `Cc1cc(C(=O)O)c2c(c1)nc(-c1c(F)c(F)c(-c3ccccc3)c(F)c1F)n2C` [I123] displayed an EC50 of 41 nM. In addition, the inhibition at 1 µM with Jurkat cells turned out to be 111%. On DHODH, it took 3 nM to reach half-maximal inhibition (IC50) and the inhibition at 10 µM is 105%.

In the case of `O=C(O)c1cccc2nc(-c3c(F)c(F)c(-c4cccs4)c(F)c3F)[nH]c12` [I124], in the assay with Jurkat cells, the inhibition at 1 µM was 80.1%. At DHODH, the IC50 was 500 nM and the inhibition at 10 µM came out at 104%.

As for `O=C(O)c1cccc2nc(-c3c(F)c(F)c(-c4cccc(F)c4)c(F)c3F)[nH]c12` [I125], the inhibition at 1 µM with Jurkat cells turned out to be 92%. At DHODH, the IC50 was determined as 28.2 nM and the inhibition at 10 µM is 97%.

`Cc1cc(C(=O)O)c2[nH]c(-c3c(F)c(F)c(-c4cccc(F)c4)c(F)c3F)nc2c1` [I126]: the inhibition at 1 µM with Jurkat cells stood at 94%. Moreover, at DHODH, half-maximal inhibition (IC50) was put at 8.86 nM and the inhibition at 10 µM worked out at 97%.

Regarding `Cc1cc(C(=O)O)c2nc(-c3c(F)c(F)c(-c4ccc(OCc5ccccc5)cc4)c(F)c3F)[nH]c2c1` [I127], in the assay on Jurkat cells, the inhibition at 1 µM came to 96%. Besides, at DHODH, the IC50 came out at 48 nM and the inhibition at 10 µM was 101%.

With `O=C(O)c1cccc2[nH]c(-c3c(F)c(F)c(-c4cccc(F)c4F)c(F)c3F)nc12` [I128], in the assay on Jurkat cells, the inhibition at 1 µM turned out to be 64.9%. On DHODH, the concentration for half-maximal inhibition (IC50) was determined as 209 nM and the inhibition at 10 µM is 73.1%.

As to `O=C(O)c1cccc2[nH]c(-c3c(F)c(F)c(-c4cc(F)cc(F)c4)c(F)c3F)nc12` [I129], in the assay on Jurkat cells, the inhibition at 1 µM turned out to be 70.5%. At DHODH, the midpoint of inhibition, the IC50, lay at 20 nM and the inhibition at 10 µM was 90.8%.

In the case of `O=C(O)c1cccc2[nH]c(-c3c(F)c(F)c(-c4ccc(F)c(F)c4)c(F)c3F)nc12` [I130], in the assay with Jurkat cells, the inhibition at 1 µM turned out to be 23.2%. Also, on DHODH, half-maximal inhibition (IC50) required 1220 nM and the inhibition at 10 µM was determined as 66.9%.

Turning to `O=C(O)c1cccc2[nH]c(-c3c(F)c(F)c(-c4ccccc4F)c(F)c3F)nc12` [I131], in the assay with Jurkat cells, the inhibition at 1 µM came to 78.8%. Besides, at DHODH, the IC50 was determined as 18 nM and the inhibition at 10 µM was 79.3%.

As to `O=C(O)c1cccc2[nH]c(-c3c(F)c(F)c(-c4ccc(OCc5ccccc5)cc4)c(F)c3F)nc12` [I132], the inhibition at 1 µM in the assay on Jurkat cells worked out at 67.8%. At DHODH, the IC50 came out at 378 nM and the inhibition at 10 µM was found to be 91.5%.

Take `O=C(O)c1cccc2[nH]c(-c3c(F)c(F)c(-c4ccc(F)cc4)c(F)c3F)nc12` [I133]: the inhibition at 1 µM in the assay on Jurkat cells came to 54.7%. On DHODH, the IC50 stood at 808 nM and the inhibition at 10 µM was 101%.

In the case of `Cc1cc(C(=O)O)c2nc(-c3c(F)c(F)c(-c4ccc(F)cc4)c(F)c3F)[nH]c2c1` [I134], the inhibition at 1 µM in the assay on Jurkat cells was 77.9%. Also, at DHODH, half-maximal inhibition (IC50) required 118 nM and the inhibition at 10 µM is 88.1%.

Turning to `Cc1cc(C(=O)O)c2nc(-c3ccc(-c4ccc(Oc5ccc(C=O)cc5)cc4)cc3)[nH]c2c1` [I135], in the assay on Jurkat cells, the inhibition at 1 µM stood at 21.8%. Further, on DHODH, the half-inhibitory concentration (IC50) came to 1590 nM and the inhibition at 10 µM worked out at 65.1%.

Regarding `O=C(O)c1cccc2[nH]c(-c3c(F)c(F)c(-c4cccnc4)c(F)c3F)nc12` [I136], the inhibition at 1 µM with Jurkat cells is 68.4%. In addition, on DHODH, half-maximal inhibition (IC50) was put at 282 nM and the inhibition at 10 µM is 89.5%.

In the case of `Cc1cc(C(=O)O)c2nc(-c3ccc(-c4ccc(Oc5ccccc5C(=O)O)cc4)cc3)[nH]c2c1` [I137], in the assay with Jurkat cells, the inhibition at 1 µM was found to be 31%. For the same compound, on DHODH, the half-maximal inhibitory concentration (IC50) is 2240 nM and the inhibition at 10 µM worked out at 65.1%.

`O=C(O)c1cccn2cc(-c3ccc(-c4ccccc4)cc3)nc12` [I138]: in the assay on Jurkat cells, the inhibition at 1 µM is 44.8%. In addition, on DHODH, the IC50 amounted to 3800 nM and the inhibition at 10 µM turned out to be 76.1%.

Regarding `Cc1cc(C(=O)O)c2nc(-c3c(F)c(F)c(-c4ccsc4)c(F)c3F)[nH]c2c1` [I139], in the assay on Jurkat cells, the inhibition at 1 µM was found to be 94.9%. Further, on DHODH, half-maximal inhibition (IC50) was put at 50 nM and the inhibition at 10 µM was 105%.
